Data from patent publication US12569422B2, “Composition and method of inhibiting cortisone reductase by applying it to the skin” (AMOREPACIFIC CORPORATION, priority 2018, dated 2026).

Tests used:
Type in all cases: cell-based
[1] = target: T1, 11β-hydroxysteroid dehydrogenase type 1 (Homo sapiens, UniProt P28845); experiment: Cortisol concentration in cell culture solution of UVB-irradiated, cortisone-treated keratinocytes (ELISA); conditions: coumestrol 1 μM, 5 μM
T1 construct: endogenous in cells; host or cells: normal human epidermal keratinocytes (NHEK)
Procedure: (§1) Human keratinocytes (normal human epidermal keratinocytes, NHEK) were cultured in a 6-well plate incubator. Specifically, the normal human epidermal keratinocytes were cultured by replacing it with phosphate-buffered saline (PBS) after 24 hours to irradiate UVB (25 mJ/cm^2) and then, adding cortisone (10 μM) to NHEK culture media having no hydrocortisone. Subsequently, the cell culture solution was collected to measure a cortisol concentration in an ELISA method, and the results are shown in FIG. 1.

keratin 1 (KRT1) = experiment: Western blotting of keratinocyte differentiation marker KRT1 in UVB-irradiated keratinocytes; conditions: human keratinocytes, coumestrol 1 μM, 5 μM, 10 μM, FIG. 2
Procedure: as §1
(§2) In addition, after separating proteins from the human keratinocytes using a RIPA lysis buffer, protein expression of keratinocyte differentiation markers (KRT1, Filaggrin) was confirmed through western blotting, and the results are shown in FIGS. 2 and 3. Referring to FIGS. 2 and 3, in the wells containing the coumestrol (1 μM, 5 μM, 10 μM), gene expression of the keratinocyte differentiation markers (KRT1, Filaggrin) inhibited by the ultraviolet (UVB) rays was increased in the keratinocytes. In other words, the gene expression of the keratinocyte differentiation markers inhibited by the ultraviolet (UVB) rays in the keratinocytes was restored by the coumestrol, and accordingly, the coumestrol inhibited activity of the cortisone reductase and reduced the cortisol concentration, eventually restoring the gene expression of the keratinocyte differentiation markers.

Filaggrin = experiment: Western blotting of keratinocyte differentiation marker filaggrin in UVB-irradiated keratinocytes; conditions: human keratinocytes, coumestrol 1 μM, 5 μM, 10 μM, FIG. 3
Procedure: as §1, §2

T1 sequence (P28845 whole entry): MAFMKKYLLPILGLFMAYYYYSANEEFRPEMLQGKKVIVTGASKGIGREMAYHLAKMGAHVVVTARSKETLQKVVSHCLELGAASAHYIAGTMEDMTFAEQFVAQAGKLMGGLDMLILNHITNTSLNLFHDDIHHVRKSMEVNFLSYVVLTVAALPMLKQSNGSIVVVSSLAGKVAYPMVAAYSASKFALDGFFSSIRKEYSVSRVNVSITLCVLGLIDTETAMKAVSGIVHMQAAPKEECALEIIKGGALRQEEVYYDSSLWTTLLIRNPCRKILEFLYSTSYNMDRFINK

O=c1oc2cc(O)ccc2c2oc3cc(O)ccc3c12 [coumestrol]
cortisol concentration in cell culture solution ([1]; NHEK, UVB 25 mJ/cm^2, cortisone 10 μM, compared with control before UV irradiation, FIG. 1): not significantly increased | activity of 11β-hydroxysteroid dehydrogenase type 1 (cortisone reductase) ([1]; conclusion from cortisol ELISA in NHEK, 10 μM): inhibit activity | expression of keratinocyte differentiation marker KRT1 inhibited by UVB (keratin 1 (KRT1)): increased | expression of keratinocyte differentiation marker Filaggrin inhibited by UVB (Filaggrin): increased
